Assay results reported in paper PMC7129073 (Clinical Microbiology and Infection, 2015).
Converted amounts (≈) assume the structure as drawn.

What was measured:
[1] = system: PRSP; assay: Broth microdilution; assay type: cell-based, Streptococcus pneumoniae
[2] = system: S. -pneumoniae; assay: Sensitivity of CAP pathogens with/without antibiotic pretreatment; assay type: cell-based, Streptococcus pneumoniae
[3] = system: ERSP; assay: Broth microdilution; assay type: cell-based, Streptococcus pneumoniae
[4] = system: S. pneumoniae; assay: Broth microdilution; assay type: cell-based, Streptococcus pneumoniae
[5] = system: H. influenzae; assay: Sensitivity of CAP pathogens with/without antibiotic pretreatment; assay type: cell-based, Haemophilus influenzae
[6] = system: E. coli; assay: as above; assay type: cell-based, Escherichia coli
[7] = system: ‘wild type’ Staphylococcus epidermidis skin isolates; assay: NCCLS disk diffusion; assay type: cell-based; conditions: 52 isolates
[8] = system: Moraxella spp.; assay: Disk diffusion; assay type: cell-based; conditions: 35 isolates
[9] = system: beta-haemolytic streptococcal isolates; assay: Disk diffusion; assay type: cell-based, beta-haemolytic streptococci; conditions: 228 isolates
[10] = system: biofilms of S. aureus (SA204 and SA195) and S. epidermidis (ATCC35983 and ATCC35984); assay: Antibiotic lock, in vitro biofilm on polyurethane film, viable counts; assay type: cell-based, Staphylococcus species; conditions: any of the time intervals examined
[11] = system: Enterococcus sp; assay: Sensitivity of CAP pathogens with/without antibiotic pretreatment; assay type: cell-based
[12] = system: Kl. pneumoniae; assay: as above; assay type: cell-based, Klebsiella pneumoniae
[13] = system: S. aureus; assay: as above; assay type: cell-based, Staphylococcus aureus
[14] = system: viridans group streptococci (VGS); assay: MIC; assay type: cell-based
[15] = system: Other Enterobacteriacae; assay: Sensitivity of CAP pathogens with/without antibiotic pretreatment; assay type: cell-based, Enterobacteriaceae
[16] = system: H.influenzae; assay: Broth microdilution; assay type: cell-based, Haemophilus influenzae; conditions: Haemophilus influenzae
[17] = system: pathogens in community acquired pneumonia of different severity; assay: Sensitivity of CAP pathogens by Fine severity group; assay type: cell-based
[18] = system: S. pneumoniae (SPN); assay: SENTRY Brazil, NCCLS broth microdilution; assay type: cell-based, Streptococcus pneumoniae
[19] = system: Other non-fermenting bacteria; assay: Sensitivity of CAP pathogens with/without antibiotic pretreatment; assay type: cell-based
[20] = system: H. influenzae; assay: Disk diffusion; assay type: cell-based, Haemophilus influenzae; conditions: 237 isolates
[21] = system: S. pyogenes; assay: Sensitivity of CAP pathogens with/without antibiotic pretreatment; assay type: cell-based, Streptococcus pyogenes; conditions: Abs. 4
[22] = system: Streptococcus pneumoniae; assay: BSAC agar dilution, lower respiratory isolates UK and Ireland; assay type: cell-based
[23] = system: C. difficile; assay: E-test, isolates from a department of surgery; assay type: cell-based, Clostridium difficile; conditions: Clostridioides difficile, read-out: MIC of high level resistant strains
[24] = system: S. pneumoniae; assay: MIC of invasive strains, Saint George Hospital 2001–2004; assay type: cell-based, Streptococcus pneumoniae
[25] = system: S. pyogenes; assay: Broth microdilution; assay type: cell-based, Streptococcus pyogenes; conditions: 212 isolates
[26] = system: Total pathogens in community acquired pneumonia; assay: Sensitivity of CAP pathogens with/without antibiotic pretreatment; assay type: cell-based
[27] = system: P. aeruginosa; assay: as above; assay type: cell-based, Pseudomonas aeruginosa; conditions: Abs. 3
[28] = system: Staph. coaq (−); assay: as above; assay type: cell-based, coagulase-negative Staphylococcus
[29] = system: Other Haemophilus sp.; assay: as above; assay type: cell-based
[30] = system: H. influenzae; assay: Disk diffusion, sputum isolates Athens 2001–2004; assay type: cell-based, Haemophilus influenzae
[31] = system: S. pneumoniae (Sp); assay: Broth microdilution, point prevalence study Spain; assay type: cell-based, Streptococcus pneumoniae; conditions: 360 isolates, February 2004; penicillin I+R
[32] = system: Salmonella serotype Enteritidis; assay: Disk diffusion, food isolates Spain; assay type: cell-based; conditions: n = 96
[33] = system: Acinetobacter; assay: Disk diffusion; assay type: cell-based; conditions: 37 isolates selected as resistant to beta-lactams
[34] = system: K. oxytoca; assay: E-test susceptibility; assay type: cell-based, Klebsiella oxytoca
[35] = system: Escherichia coli; assay: EARSS Ireland, invasive isolates; assay type: cell-based; conditions: Jan'01–Jun'04, 2432 isolates
[36] = system: Haemophilus influenzae; assay: Susceptibility testing; assay type: cell-based; conditions: conjunctival isolates 2000–2004
[37] = system: nontyphoidal Salmonella; assay: Agar dilution, isolates from chickens 1998–2004; assay type: cell-based, Salmonella spp.
[38] = system: enterococci; assay: Disk diffusion, urine isolates of BPH patients; conditions: strains isolated post-operatively
[39] = system: K. pneumoniae; assay: MIC; assay type: cell-based, Klebsiella pneumoniae; conditions: BSAC
[40] = system: Salmonella, other 49 serotypes; assay: Disk diffusion, food isolates Spain; assay type: cell-based; conditions: n = 115
[41] = system: Enterobacter spp; assay: E-test susceptibility; assay type: cell-based
[42] = system: E. coli; assay: E-test susceptibility; assay type: cell-based, Escherichia coli
[43] = system: Streptococcus pneumoniae; assay: Susceptibility testing; assay type: cell-based; conditions: 99 isolates tested
[44] = system: Staphylococcus aureus; assay: EARSS Ireland, invasive isolates; assay type: cell-based
[45] = system: Staphylococcus coagulase negative (CNS); assay: Susceptibility testing; assay type: cell-based; conditions: conjunctival isolates 2000–2004
[46] = system: Salmonella serotype Typhimurium; assay: Disk diffusion, food isolates Spain; assay type: cell-based; conditions: n = 53
[47] = system: Escherichia coli (ECO); assay: Broth microdilution; assay type: cell-based; conditions: 2001
[48] = system: P. aeruginosa; assay: Disk diffusion, urine isolates of BPH patients
[49] = system: glycopeptide intermediate Staphylococcus species (GISS); assay: VITEK II, screening plate and E test, blood isolates; assay type: cell-based, coagulase-negative Staphylococci; conditions: 73 GISS strains
[50] = system: Staphylococcus aureus; assay: Susceptibility testing; assay type: cell-based; conditions: conjunctival isolates 2000–2004
[51] = system: Shigella spp.; assay: Disk diffusion, stool isolates Tehran; assay type: cell-based; conditions: 96 isolates
[52] = system: E. coli; assay: Disk diffusion, urine isolates of BPH patients; conditions: strains isolated after operative intervention
[53] = system: S. aureus SCVs; assay: Resistance of small colony variants from cystic fibrosis patients; assay type: cell-based, Staphylococcus aureus; conditions: CF patients, Frankfurt 2004
[54] = system: Moraxella catarrhalis (MC); assay: MIC; assay type: cell-based; conditions: 2497 isolates
[55] = system: S. pneumoniae; assay: PROTEKT Italy, NCCLS microdilution; assay type: cell-based, Streptococcus pneumoniae
[56] = system: S. pyogenes; assay: PROTEKT Italy, NCCLS microdilution; assay type: cell-based, Streptococcus pyogenes; conditions: year 1: 2002
[57] = system: Haemophilus influenzae (HI); assay: MIC; assay type: cell-based; conditions: 7489 isolates
[58] = system: Streptococcus pyogenes (SPY); assay: MIC; assay type: cell-based; conditions: 2522 isolates
[59] = system: Streptococcus pneumoniae (SPN); assay: MIC; assay type: cell-based; conditions: 8378 isolates
[60] = NCCLS breakpoints (Amox/Clav 2/1 mcg/mL)

CC[C@H]1OC(=O)[C@H](C)[C@@H](O[C@H]2C[C@@](C)(OC)[C@@H](O)[C@H](C)O2)[C@H](C)[C@@H](O[C@@H]2O[C@H](C)C[C@H](N(C)C)[C@H]2O)[C@](C)(O)C[C@@H](C)C(=O)[C@H](C)[C@@H](O)[C@]1(C)O [erythromycin]
%Sus [1, 60]: 21.5% | MIC90 ([1]; Streptococcus pneumoniae, PRSP): > 32 µg/mL | % of sensitive strains ([2]; after antibiotic pretreatment, Abs. 3): 100.0% | % of sensitive strains ([2]; without antibiotic pretreatment, Abs. 13): 100.0% | %Sus [3, 60]: 0.0% | MIC90 ([3]; Streptococcus pneumoniae): > 32 µg/mL | %Sus [4, 60]: 71.2% | MIC90 ([4]; Streptococcus pneumoniae): > 32 µg/mL | % of sensitive strains ([5]; after pretreatment, Abs. 10): 0.0% | % of sensitive strains ([5]; without pretreatment, Abs. 26): 0.0% | % of sensitive strains ([6]; after pretreatment, Abs. 1): 0.0% | % of sensitive strains ([6]; without pretreatment, Abs. 5): 0.0% | % resistant [7]: 46.2% | Susceptible isolates [8]: 100% | Susceptible isolates [9]: 98% | significant biofilm killing [10]: not achieved | % of sensitive strains ([11]; after pretreatment, Abs. 0): 0.0% | % of sensitive strains ([11]; without pretreatment, Abs. 1): 0.0% | % of sensitive strains ([12]; after pretreatment, Abs. 5): 0.0% | % of sensitive strains ([12]; without pretreatment, Abs. 4): 0.0% | % of sensitive strains ([13]; after pretreatment, Abs. 4): 75.0% | % of sensitive strains ([13]; without pretreatment, Abs. 11): 45.5% | MIC50 [14]: 0.12 µg/mL (≈ 0.164 µM) | MIC90 [14]: 256 µg/mL (≈ 349 µM) | % of sensitive strains ([15]; after pretreatment, Abs. 5): 0.0% | % of sensitive strains ([15]; without pretreatment, Abs. 2): 0.0% | MIC90 [16]: 8 µg/mL (≈ 10.9 µM) | sensitivity, total strains ([17]; higher severity group (Fine scores >70)): 26,3% | sensitivity, total strains ([17]; lower severity group (Fine scores <70)): 17.6% | % S [18]; 1998: 85% | % S [18]; 1999: 88% | % S [18]; 2000: 91% | % S [18]; 2001: 90% | % S [18]; 2002: 94% | % S [18]; 2003: 91% | % of sensitive strains ([19]; after pretreatment, Abs. 0): 0.0% | % of sensitive strains ([19]; without pretreatment, Abs. 1): 0.0% | Susceptible isolates [20]: 94% | % of sensitive strains ([21]; after pretreatment): 100.0% | % of sensitive strains ([21]; without pretreatment): 100.0% | resistance (PEN-NS >0.06, TET-R >1, ERY-R >0.5, CIP-R >2 mg/L) ([22]; Ireland 1999–2000, N 66): 27.3% | resistance (same cut-offs) ([22]; Ireland 2000–2001, N 59): 23.7% | resistance (same cut-offs) ([22]; Ireland 2001–2002, N 68): 25.0% | resistance (same cut-offs) ([22]; Ireland 2002–2003, N 89): 12.4% | resistance (same cut-offs) ([22]; Ireland 2003–2004, N 76): 9.2% | resistance (same cut-offs) ([22]; UK 1999–2000, N 595): 11.8% | resistance (same cut-offs) ([22]; UK 2000–2001, N 608): 10.0% | resistance (same cut-offs) ([22]; UK 2001–2002, N 631): 10.8% | resistance (same cut-offs) ([22]; UK 2002–2003, N 683): 9.7% | resistance (same cut-offs) ([22]; UK 2003–2004, N 709): 10.6% | MIC [23]: > 256 µg/mL | % S [24]: 82% | %R [24]: 18% | nonsusceptible [25]: 10.8% | % of sensitive strains ([26]; after pretreatment, Abs. 48): 22.9% | % of sensitive strains ([26]; without pretreatment, Abs. 95): 26.3% | % of sensitive strains ([27]; after pretreatment): 0.0% | % of sensitive strains ([27]; without pretreatment): 0.0% | % of sensitive strains ([28]; after pretreatment, Abs. 2): 50.0% | % of sensitive strains ([28]; without pretreatment, Abs. 4): 75.0% | % of sensitive strains ([29]; after pretreatment, Abs. 11): 0.0% | % of sensitive strains ([29]; without pretreatment, Abs. 21): 00% | resistance rate ([30]; 2001–2002): 49.5% | resistance rate ([30]; 2003–2004): 58.0% | resistance [31]: 36%

CNC(C)C1CCC(N)C(OC2C(N)CC(N)C(OC3OCC(C)(O)C(NC)C3O)C2O)O1 (stereo not drawn) [gentamicin]
resistance rate (NCCLS M100-S13) [32]: 1% | resistant isolates [33]: 100.0% | Susceptible isolates ([34]; ICU): 100/100% | Susceptible isolates ([34]; non ICU): 100/100% | resistant isolates [35]: 3.7% | resistant isolates [36]: 1.6% | resistance ([37]; Belgian collection (caecal samples; Belgium, France, Netherlands)): ≤ 1% | resistance ([37]; Germany (carcass meat)): ≤ 1% | significant biofilm killing [10]: not achieved | resistance [38]: 66.7% | susceptibility category [39]: resistant | resistance rate (NCCLS M100-S13) [40]: 0% | high-level resistance ([14]; 107 strains): 0.9% | Susceptible isolates ([41]; ICU): 99% | Susceptible isolates ([41]; non ICU): 100% | Susceptible isolates ([42]; ICU, SRGA breakpoints, tigecycline tentative S ≤2 μg/ml): 98/98% | Susceptible isolates ([42]; non ICU): 98/98% | resistant isolates [43]: 45.4% | resistance amongst MRSA isolates [44]; 1999: 58.4% | resistance amongst MRSA isolates [44]; 2003: 13.1% | resistant isolates [45]: 17.9% | resistance rate (NCCLS M100-S13) [46]: 4% | susceptible ([47]; NAL-resistant isolates): 68.9% | susceptible ([47]; NAL-susceptible isolates): 91.2% | resistance [48]: 86.7% | resistance rate [49]: 87,7% | resistant isolates [50]: 12% | intermediatly resistant [51]: 34% | sensitive [51]: 54% | resistance [52]: 82.7% | resistance rate of SCV isolates [53]: 46.2%

CC[C@H]1OC(=O)[C@H](C)C(=O)[C@H](C)[C@@H](O[C@@H]2O[C@H](C)C[C@H](N(C)C)[C@H]2O)[C@](C)(OC)C[C@@H](C)C(=O)[C@H](C)[C@H]2N(CCCCn3cnc(-c4cccnc4)c3)C(=O)O[C@]12C [telithromycin]
MIC50 [14]: 0.007 µg/mL (≈ 0.00862 µM) | MIC90 [14]: 2 µg/mL (≈ 2.46 µM) | MIC90 [54]: 0.12 ig/ml | susceptible ([55]; year 1: 2002): 99.7% | susceptible ([55]; year 2: 2003): 99.1% | Susceptibility [56]: 92.7% | MIC90 [57]: 4 ig/ml | MIC90 [58]: 0.008 ig/ml | MIC90 [59]: 0.008 ig/ml
